Results as given in patent US20050060764A1, “Mouse model for bone metabolism” (priority 2003, published 2005).
Strand notation (5' to 3'): a small letter for the sugar, then the base; units joined by * are phosphorothioate-linked, units joined directly phosphodiester-linked; [ ] holds rarer units or linkages, { } end groups; capitals alone tell only the bases. e = 2'-O-(2-methoxyethyl) (MOE); [5mC] = 5-methylcytosine; d = 2'-deoxy (DNA)

Test system: rat RANKL mRNA
Assay: Antisense inhibition of rat RANKL mRNA levels in UMR-106 cells, quantitative real-time PCR (Table 3)
Type: cell-based
Design: concentration or dose not given beside the values
Details: averages from three experiments
Description: Cells were seeded onto 24-well plates (Falcon-353047) at a density of […] for use in antisense oligonucleotide transfection.
Cells are treated and data are obtained in triplicate. […] Cells were harvested 16-24 hours after oligonucleotide treatment.
PCR reagents were obtained from Invitrogen Corporation, (Carlsbad, Calif.).
Probes and primers to rat RANKL were designed to hybridize to a rat RANKL sequence, using published sequence information (GenBank accession number NM_057149.1, incorporated herein as SEQ ID NO:18). For rat RANKL the PCR primers were: • forward primer: […] (SEQ ID NO:19) • reverse primer: […] (SEQ ID NO: 20) and the • PCR probe was: FAM-[…]-TAMRA (SEQ ID NO: 21) where FAM is the fluorescent reporter dye and TAMRA is the quencher dye. For rat GAPDH the PCR primers were: • forward primer: […](SEQ ID NO:22) • reverse primer: […](SEQ ID NO:23) and the • PCR probe was: 5′ JOE-[…]-TAMRA 3′ (SEQ ID NO: 24) where JOE is the fluorescent reporter dye and TAMRA is the quencher dye.
In accordance with the present invention, a second series of antisense compounds was designed to target different regions of the rat RANKL RNA, using published sequences (GenBank accession number NM_057149.1, incorporated herein as SEQ ID NO: 18, and GenBank accession number AF425669.1, incorporated herein as SEQ ID NO: 200). […] All cytidine residues are 5-methylcytidines. […] If present, “N.D.” indicates “no data”.

**Q.** How did the “% INHIB (inhibition of rat RANKL mRNA levels)” value (from here on “% INHIB”) turn out when “ttttaacgacatataccatc (eT*eT*eT*eT*eA*dA*d[5mC]*dG*dA*d[5mC]*dA*dT*dA*dT*dA*e[5mC]*e[5mC]*eA*eT*e[5mC]; antisense) [ISIS 286630, 2′-MOE gapmer targeted to rat RANKL]” was run?
**A.** at least 40%

**Q.** Which “% INHIB” value does the source give for “286586 (antisense eG*eG*eT*eA*e[5mC]*dT*dT*dG*d[5mC]*d[5mC]*dG*dT*dA*dG*dT*e[5mC]*eT*e[5mC]*eG*eG) [compound 286586]” here?
**A.** 63%

**Q.** With “agtcgagtcctgcaaacctg (eA*eG*eT*e[5mC]*eG*dA*dG*dT*d[5mC]*d[5mC]*dT*dG*d[5mC]*dA*dA*eA*e[5mC]*e[5mC]*eT*eG; antisense) [ISIS 286603, 2′-MOE gapmer targeted to rat RANKL]” as the substance, how does the “% INHIB” value read?
**A.** at least 40%

**Q.** “286639 (antisense e[5mC]*e[5mC]*e[5mC]*eA*eA*dA*dG*dT*dA*d[5mC]*dG*dT*d[5mC]*dG*d[5mC]*eA*eT*e[5mC]*eT*eT) [compound 286639]” was tested. Which “% INHIB” value did it give?
**A.** 48%

**Q.** How did the “% INHIB” value turn out when “286648 (antisense e[5mC]*e[5mC]*eA*eT*eT*dG*dT*dG*dT*dG*dA*dT*d[5mC]*dA*d[5mC]*e[5mC]*eA*eT*eG*eA) [compound 286648]” was run?
**A.** 72%

**Q.** Which “% INHIB” value does the source give for “286598 (antisense e[5mC]*eT*eT*e[5mC]*eT*dG*dA*dT*dA*dT*dT*d[5mC]*dT*dG*dT*eT*eA*eG*eG*eA) [compound 286598]” here?
**A.** 6%

**Q.** With “286591 (antisense eA*eA*eG*eT*eA*d[5mC]*dA*dG*dG*dA*dA*d[5mC]*dA*dG*dA*eG*e[5mC]*eG*eA*eT) [compound 286591]” as the substance, how does the “% INHIB” value read?
**A.** 17%

**Q.** With “agaggacagactgactttat (eA*eG*eA*eG*eG*dA*d[5mC]*dA*dG*dA*d[5mC]*dT*dG*dA*d[5mC]*eT*eT*eT*eA*eT; antisense) [ISIS 286611, 2′-MOE gapmer targeted to rat RANKL]” as the substance, how does the “% INHIB” value read?
**A.** at least 40%

**Q.** With “286644 (antisense eG*eT*e[5mC]*eT*eT*dA*d[5mC]*dA*d[5mC]*dA*dT*dG*dT*dA*dT*e[5mC]*eT*eA*e[5mC]*eA) [compound 286644]” as the substance, how does the “% INHIB” value read?
**A.** 57%

**Q.** Which “% INHIB” value does the source give for “286619 (antisense eG*eG*eT*eT*eA*dA*d[5mC]*d[5mC]*d[5mC]*dT*dT*dA*dG*dT*dT*eT*eT*e[5mC]*e[5mC]*eG) [compound 286619]” here?
**A.** 61%

**Q.** How did the “% INHIB” value turn out when “gatattctgttaggatccat (eG*eA*eT*eA*eT*dT*d[5mC]*dT*dG*dT*dT*dA*dG*dG*dA*eT*e[5mC]*e[5mC]*eA*eT; antisense) [ISIS 286597, 2′-MOE gapmer targeted to rat RANKL]” was run?
**A.** at least 40%

**Q.** Which “% INHIB” value does the source give for “286629 (antisense eA*e[5mC]*e[5mC]*eA*eT*d[5mC]*dA*dG*d[5mC]*dT*dG*dA*dA*dG*dA*eT*eA*eG*eT*e[5mC]) [compound 286629]” here?
**A.** 63%

**Q.** For “180806 (antisense eG*eG*e[5mC]*eA*eG*d[5mC]*dA*dT*dT*dG*dA*dT*dG*dG*dT*eG*eA*eG*eG*eT) [compound 180806]”, which “% INHIB” value is on record?
**A.** 9%

**Q.** Which “% INHIB” value does the source give for “286613 (antisense eG*eA*eT*e[5mC]*eA*dT*dG*dG*dT*dA*d[5mC]*d[5mC]*dA*dA*dG*eA*eG*eG*eA*e[5mC]) [compound 286613]” here?
**A.** 39%

**Q.** “286590 (antisense e[5mC]*eA*eG*eG*eA*dA*d[5mC]*dA*dG*dA*dG*d[5mC]*dG*dA*dT*eG*e[5mC]*eT*eG*e[5mC]) [compound 286590]” was tested. Which “% INHIB” value did it give?
**A.** 47%

**Q.** With “tttgcacggccccttgaaag (eT*eT*eT*eG*e[5mC]*dA*d[5mC]*dG*dG*d[5mC]*d[5mC]*d[5mC]*d[5mC]*dT*dT*eG*eA*eA*eA*eG; antisense) [ISIS 286605, 2′-MOE gapmer targeted to rat RANKL]” as the substance, how does the “% INHIB” value read?
**A.** at least 40%

**Q.** “cgcgtgctgtcttctgatat (e[5mC]*eG*e[5mC]*eG*eT*dG*d[5mC]*dT*dG*dT*d[5mC]*dT*dT*d[5mC]*dT*eG*eA*eT*eA*eT; antisense) [ISIS 286599, 2′-MOE gapmer targeted to rat RANKL]” was tested. Which “% INHIB” value did it give?
**A.** at least 40%

**Q.** How did the “% INHIB” value turn out when “286637 (antisense e[5mC]*eG*e[5mC]*eA*eT*d[5mC]*dT*dT*dG*dA*dT*d[5mC]*d[5mC]*dG*dG*eA*eT*e[5mC]*e[5mC]*eA) [compound 286637]” was run?
**A.** 27%

**Q.** Which “% INHIB” value does the source give for “gtggcacaggcccaggagtt (eG*eT*eG*eG*e[5mC]*dA*d[5mC]*dA*dG*dG*d[5mC]*d[5mC]*d[5mC]*dA*dG*eG*eA*eG*eT*eT; antisense) [ISIS 286650, 2′-MOE gapmer targeted to rat RANKL]” here?
**A.** at least 40%

**Q.** How did the “% INHIB” value turn out when “286614 (antisense eA*eT*e[5mC]*eT*eT*dG*dG*d[5mC]*d[5mC]*d[5mC]*dA*dG*d[5mC]*d[5mC]*dT*e[5mC]*eG*eA*eT*e[5mC]) [compound 286614]” was run?
**A.** 41%

**Q.** How did the “% INHIB” value turn out when “286647 (antisense eG*eA*e[5mC]*e[5mC]*eT*dG*dT*dA*d[5mC]*dA*dG*dG*dG*dT*d[5mC]*eG*eA*eG*eA*eG) [compound 286647]” was run?
**A.** 53%

**Q.** Which “% INHIB” value does the source give for “286611 (antisense eA*eG*eA*eG*eG*dA*d[5mC]*dA*dG*dA*d[5mC]*dT*dG*dA*d[5mC]*eT*eT*eT*eA*eT) [compound 286611]” here?
**A.** 47%

**Q.** With “286643 (antisense eG*e[5mC]*eA*eT*eA*dT*d[5mC]*d[5mC]*dA*dT*dG*d[5mC]*dT*dA*dA*eG*eG*e[5mC]*eT*e[5mC]) [compound 286643]” as the substance, how does the “% INHIB” value read?
**A.** 69%

**Q.** With “286638 (antisense eA*eG*eT*eA*e[5mC]*dG*dT*d[5mC]*dG*d[5mC]*dA*dT*d[5mC]*dT*dT*eG*eA*eT*e[5mC]*e[5mC]) [compound 286638]” as the substance, how does the “% INHIB” value read?
**A.** 26%

**Q.** How did the “% INHIB” value turn out when “286593 (antisense e[5mC]*eT*eG*e[5mC]*eG*d[5mC]*dT*d[5mC]*dG*dA*dA*dA*dG*dT*dA*e[5mC]*eA*eG*eG*eA) [compound 286593]” was run?
**A.** 49%

**Q.** Which “% INHIB” value does the source give for “ctgcgctcgaaagtacagga (e[5mC]*eT*eG*e[5mC]*eG*d[5mC]*dT*d[5mC]*dG*dA*dA*dA*dG*dT*dA*e[5mC]*eA*eG*eG*eA; antisense) [ISIS 286593, 2′-MOE gapmer targeted to rat RANKL]” here?
**A.** at least 40%

**Q.** “286654 (eA*e[5mC]*eT*eT*eA*dT*dT*dT*dG*d[5mC]*dA*dG*dG*dT*dT*e[5mC]*e[5mC]*eA*eG*e[5mC]; antisense) [compound 286654]” was tested. Which “% INHIB” value did it give?
**A.** 55%

**Q.** How did the “% INHIB” value turn out when “286640 (antisense eA*eA*eA*eG*e[5mC]*d[5mC]*d[5mC]*d[5mC]*dA*dA*dA*dG*dT*dA*d[5mC]*eG*eT*e[5mC]*eG*e[5mC]) [compound 286640]” was run?
**A.** 56%

**Q.** With “286635 (antisense eT*eA*eA*eA*eA*dG*dT*dG*dG*dA*dA*dT*dT*d[5mC]*dA*eG*eA*eA*eT*eT) [compound 286635]” as the substance, how does the “% INHIB” value read?
**A.** 11%

**Q.** Which “% INHIB” value does the source give for “286627 (antisense eG*e[5mC]*eA*eA*eA*dT*dG*dT*dT*dG*dG*d[5mC]*dG*dT*dA*e[5mC]*eA*eG*eG*eT) [compound 286627]” here?
**A.** 53%

**Q.** Which “% INHIB” value does the source give for “286594 (antisense eT*e[5mC]*e[5mC]*eA*eT*d[5mC]*dT*dG*d[5mC]*dG*d[5mC]*dT*d[5mC]*dG*dA*eA*eA*eG*eT*eA) [compound 286594]” here?
**A.** 35%
